Experimental data published in US20250127896A1, “CHIMERIC TIM4 RECEPTORS AND USES THEREOF” (CERO THERAPEUTICS HOLDINGS, INC., priority 2021, published 2025).

What was measured:
Assay type in all cases: cell-based
REC-1 cells = assay: Phagocytosis of pHrodo-labeled ibrutinib-treated REC-1 cells by CER T cells
Text: FIG. 13A: Representative flow cytometry histograms showing engulfment of pHrodo red-labeled REC-1 target cells by CER1234, CER1161, and CER1183 T cells. FIG. 13B: Graphical summary of flow cytometry data showing engulfment of pHrodo red-labeled REC-1 target cells by CER1234, CER1161, and CER1183 T cells. * P<0.01, ** P<0.001, *** P<0.0001; mean+SD, n=4. FIG. 13C: Representative fluorescence microscopy images (at 40×) showing engulfment of pHrodo red-labeled REC-1 target cells by CER1234, CER1161, and CER1183 T cells. FIG. 13D: Engulfed pHrodo-green-labeled REC-1 tumor fragments co-localize into Lyso-tracker red-labeled lysosomes.
Phagocytosis was assessed in co-culture assays of REC-1 cells with CER T cells. […] The percentage of pHrodo red-positive cells was determined by flow cytometry after 16 or 40 hours of co-culture. The localization of tumor fragments in CER T-cell lysosomal compartments was assessed in a separate experiment with REC-1 cells labeled with pHrodo green; following co-culture, all cells were labeled with Lyso-tracker red. Visualization of engulfment was performed by fluorescence microscopy. 1-way ANOVA with Dunnett's post hoc test was performed compared with untransduced T cells.

[1] = test system: JeKo-1 MCL mCherry+ cells; assay: IFN-γ secretion of CER1236 T cells co-cultured with ibrutinib-treated JeKo-1 cells (ELLA); conditions: JeKo-1 pretreated 20 μM Ibrutinib 48 h, co-culture 0.5 μM Ibrutinib, 120 h
Experimental: After 120 h, IFN-γ secretion was measured using ELLA automated ELISA.

E7 TCR T cells = assay: APC-like function: E7 peptide-pulsed CER T cells co-cultured with E7 TCR T cells (activation markers, CT Violet proliferation)
Experimental: FIG. 1A: a schematic of pCTX247 (also referred to herein as CER247) and pCTX1107 (also referred to herein as CER1107 or CER1236) chimeric Tim4 receptors and pCTX1107 T cells pulsed with E7 peptides and co-cultured with E7-specific T cells to evaluate their antigen presentation capacity. FIG. 1B: E7-specific proliferation responses were measured by CT Violet dye dilution after 6 days in the presence of autologous CER-T (TLR containing or non-containing CERs) pulsed with E7 peptides. […] All data collected by FACS. Cell tracing show E7 TCR-T cells using an anti-mouse TCRb. E7 TCR-T cells were labeled with CT Violet at the time of co-culture. FIG. 1D: Percentage of proliferated E7 TCR cells in culture among live CD3+ cells determined by flow cytometry based on staining of cell trace violet low E7 TCRb+ cells.
FIG. 2: T cells containing chimeric Tim4 receptors with a TLR intracellular signaling domain added to the CD3ζ signaling domain (and optionally a CD28 signaling domain) are strong stimulators of autologous E7-specific T cell responses. CER-T cells were pulsed with E7 peptide and tested for their capacity to trigger an autologous E7-specific T cell response. CD25, a T cell activation marker, was evaluated on E7 TCR-T cells, 24 hours after CER-T cells were pulsed with E7 peptides. […]

NSCLC H1975 cells = assay: Cytokine production by CER1236 T cells co-cultured with H1975 cells and osimertinib (Ella); conditions: 96 h, E:T 1:4, vs vehicle and untransduced T cells
Experimental: FIG. 40: Graphs showing cytokine production by CER1236 T cells co-cultured with NSCLC H1975 cells with 100 nM osimertinib or vehicle (left to right: granzyme B, TNFα, IL-6, and IFNγ).
Cytokine production was also measured in CER1236 T cells co-cultured with H1975 NSCLC cells pre-treated with osimertinib or vehicle. Ten-thousand NSCLC H1975 cells were cultured for 24 h with 100 nM Osimertinib or vehicle (DMSO) and then co-cultured with CER T cells for 96 h at an E:T of 1:4 in the presence or absence of 4.88 nM Osimertinib or vehicle. Effector:Target ratio was 1:4, and H1975 cells were plated at 10,000 cells/well. Cytokine production was determined by Ella assay.

Substance | localization of internalized fragments (REC-1 cells; BTK inhibitor-primed REC-1 cells) | engulfment of pHrodo red+ target cells (REC-1 cells; REC-1 pretreated 10 μM ibrutinib, 16 and 40 hours of co-culture) | IFN-γ response with ibrutinib [1] | E7 TCR-T cell surface activation markers CD25 and CD69 upregulated (E7 TCR T cells; 24 hrs following co-culture, controls 23.1%) [%] | percentage of dividing E7-TCR-T cells (E7 TCR T cells; by 6 days, controls 8%) [%] | cytokine production (granzyme B, TNFα, IL-6, IFNγ), combination with osimertinib (NSCLC H1975 cells)
CER-1234: chimeric Tim4 receptor: Tim4 binding domain-CD28tm-CD28-TLR2 TIR-CD3z, SEQ ID NO:18; tested as transduced T cells | internalized fragments were localized to lysosomal compartments | increased engulfment of pHrodo red+target cells relative to untransduced T cells | – | – | – | –
CER-1236: chimeric Tim4 receptor: Tim4 binding domain-CD28tm-CD28-CD3z-TLR2 TIR, SEQ ID NO:19; tested as transduced T cells | – | – | enhances CER1236 T cell IFN-γ response | 41.2 | 44 | increased cytokine production
